Experimental data published in ChEMBL document CHEMBL1201862, “PubChem BioAssay data set” (2004).
Calls of active or inactive are those of the source.

How the values were obtained:
[1] = target: T1, Replicative DNA helicase DnaB (Mycobacterium tuberculosis, UniProt P9WMR3); assay: DnaB intein splicing inhibitors, dose response, biochemical, cell-free fluorescence (AID 449749); assay type: functional
T1 sequence (P9WMR3 whole entry): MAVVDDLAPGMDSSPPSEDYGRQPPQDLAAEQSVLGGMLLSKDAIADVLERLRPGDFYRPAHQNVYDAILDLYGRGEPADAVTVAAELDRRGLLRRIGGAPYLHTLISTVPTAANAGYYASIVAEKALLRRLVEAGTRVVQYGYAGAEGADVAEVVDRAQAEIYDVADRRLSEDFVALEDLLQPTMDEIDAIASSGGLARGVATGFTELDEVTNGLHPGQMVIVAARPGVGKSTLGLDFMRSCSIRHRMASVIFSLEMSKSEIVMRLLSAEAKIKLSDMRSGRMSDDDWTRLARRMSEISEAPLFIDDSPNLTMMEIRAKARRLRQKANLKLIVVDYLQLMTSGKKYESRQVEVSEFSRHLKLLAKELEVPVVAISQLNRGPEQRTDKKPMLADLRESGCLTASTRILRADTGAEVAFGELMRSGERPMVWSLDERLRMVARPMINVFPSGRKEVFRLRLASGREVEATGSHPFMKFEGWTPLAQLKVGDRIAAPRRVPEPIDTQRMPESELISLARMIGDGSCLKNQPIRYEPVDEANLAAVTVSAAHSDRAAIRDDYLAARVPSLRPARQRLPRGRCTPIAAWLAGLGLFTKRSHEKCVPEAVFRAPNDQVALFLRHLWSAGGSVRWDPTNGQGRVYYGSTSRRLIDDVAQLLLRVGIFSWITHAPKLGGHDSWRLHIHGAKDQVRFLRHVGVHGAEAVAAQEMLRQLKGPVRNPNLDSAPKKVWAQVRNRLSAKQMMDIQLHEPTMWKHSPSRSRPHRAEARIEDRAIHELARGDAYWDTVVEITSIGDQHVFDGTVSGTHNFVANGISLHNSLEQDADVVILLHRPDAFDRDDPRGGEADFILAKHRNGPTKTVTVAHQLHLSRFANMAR

[2] = Luminescence Cell-Based Dose Response HTS to Identify Activators of Luciferase Translation or Activity in H4 […] Cells. [Related pubchem assays: 1829 (Project Summary), 1814 (Primary HTS)]; assay type: functional
H4 = assay: Luminescence Cell-Based Dose Response HTS to Identify Activators of 5'UTR Stem-Loop Driven Prion Protein mRNA Translation in H4 Neuroglioblastoma Cells. [Related pubchem assays: 1829 (Project Summary), 1814 (Primary HTS)]; assay type: functional; details: Homo sapiens
Protein RecA = target: T2, Protein RecA (Mycobacterium tuberculosis, UniProt P9WHJ3); assay: Fluorescence Cell-Free Homogeneous Dose Retest to Identify Inhibitors of RecA-Intein Splicing Activity. [Related pubchem assays (depositor defined):AID2097, AID2223, AID489010, AID492950]; assay type: functional
T2 sequence (P9WHJ3 whole entry): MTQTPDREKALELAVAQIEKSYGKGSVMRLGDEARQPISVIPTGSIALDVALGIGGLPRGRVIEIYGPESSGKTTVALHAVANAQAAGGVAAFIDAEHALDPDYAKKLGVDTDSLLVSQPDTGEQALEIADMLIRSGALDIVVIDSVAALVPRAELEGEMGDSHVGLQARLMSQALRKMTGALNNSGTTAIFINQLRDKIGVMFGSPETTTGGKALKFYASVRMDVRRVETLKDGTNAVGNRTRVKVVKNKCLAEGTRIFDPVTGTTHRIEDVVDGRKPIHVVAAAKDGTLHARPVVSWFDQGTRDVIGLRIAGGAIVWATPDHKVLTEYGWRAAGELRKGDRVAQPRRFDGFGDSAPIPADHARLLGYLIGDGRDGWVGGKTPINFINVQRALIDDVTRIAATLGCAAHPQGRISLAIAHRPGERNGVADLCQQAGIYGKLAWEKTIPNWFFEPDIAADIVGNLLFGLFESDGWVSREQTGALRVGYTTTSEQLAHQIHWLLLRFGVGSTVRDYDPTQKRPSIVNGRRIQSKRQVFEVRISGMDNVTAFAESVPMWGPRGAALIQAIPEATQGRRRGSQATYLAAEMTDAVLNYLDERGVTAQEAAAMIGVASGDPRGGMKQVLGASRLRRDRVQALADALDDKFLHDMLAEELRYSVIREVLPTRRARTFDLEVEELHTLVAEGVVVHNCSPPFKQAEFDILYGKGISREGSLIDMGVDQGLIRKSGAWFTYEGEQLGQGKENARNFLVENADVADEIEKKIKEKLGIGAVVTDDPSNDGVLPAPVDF

[3] = microbe, parasite or virus in culture; assay type: functional; details: Mycobacterium tuberculosis
[4] = Luminescence Cell-Based Dose Confirmation HTS to Identify Activators of 5'UTR Stem-Loop Driven Alpha-Synuclein mRNA Translation in H4 Neuroglioblastoma Cells. [Related pubchem assays: 1829 (Project Summary), 1814 (Primary HTS)]; assay type: functional
Genome polyprotein = Genome polyprotein (dengue virus type 2, UniProt P29990); assay: flavivirus cap methylation enzyme inhibition – biochemical, confirmation dose response, primary screen (AID 588689); assay type: functional
Fatty acid synthase [5] = target: T3, Fatty acid synthase (Homo sapiens, UniProt P49327); assay: inhibition of human FAS-TE enzyme activity – biochemical, endpoint fluorescence intensity, uHTS hits, dose response (AID 624327); assay type: functional;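 further: fluorescence from hydrolysis of an O-methyl fluorescein acyl ester substrate by the enzyme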
Fatty acid synthase [6] = target: T3, Fatty acid synthase; assay: inhibition of human FAS-TE enzyme activity – biochemical, kinetic fluorescence intensity, dose response (AID 624326); assay type: functional;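 further: rate of fluorescence rise from hydrolysis of a fluorogenic O-methyl fluorescein ester substrate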
[7] = fluconazole-exposed Candida albicans growth modulators – fluorescence, retest, confirmation (AID 2467); assay type: functional, cell-based
[8] = NIH-3T3 fibroblast cytotoxicity, dose response, cytotoxicity control, cell-based, fluorescence, Alamar Blue, secondary assay (AID 2327); assay type: functional;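 further: NIH-3T3 mouse fibroblasts cultured with fluconazole at 8 µg/mL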
[9] = loss of viability in HepG2 cells – cell-based, CellTiter-Glo, cherry-picked, cytotoxicity control for Shn3 inhibitor project, dose response (AID 624134); assay type: functional
[10] = reduction of Shn3 3'UTR-driven luciferase in osteoblasts – cell-based, Clone20 osteoblasts, firefly luciferase, cherry-picked, dose response (AID 624132); assay type: functional;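 further: firefly luciferase luminescence from reporter carrying the Shn3 3'UTR in osteoblasts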
[11] = non-specific 3'UTR reporter inhibition in Clone20-Shn3RL – cell-based, Renilla luciferase, cherry-picked, counter-screen for Shn3 inhibitor project, dose response (AID 624133); assay type: functional
[12] = system: Streptococcus sp. 'group A'; assay: Streptococcus pyogenes SK(-)GAS viability under kanamycin – luminescence, BacTiterGlo, confirmation, counter-screen for streptokinase expression inhibitor project, dose response (AID 1900); assay type: functional, organism-based
Streptococcus = assay: GAS UMAA2166 growth inhibition – luminescence, BacTiterGlo, counter-screen for streptokinase expression inhibitor project, dose response (AID 1915); assay type: functional, organism-based;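 further: potency for reduction of bacterial viability or growth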
Streptokinase A = target: T4, Streptokinase A (Streptococcus pyogenes serotype M1, UniProt P10520); assay: viability-normalized secreted streptokinase activity reduction – plasminogen activation absorbance, OD405, dose response (AID 1914); assay type: functional, Streptococcus pyogenes M1 GAS;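 further: secreted streptokinase activity via plasminogen activation per viability signal from cell pellet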
T4 sequence (P10520 whole entry): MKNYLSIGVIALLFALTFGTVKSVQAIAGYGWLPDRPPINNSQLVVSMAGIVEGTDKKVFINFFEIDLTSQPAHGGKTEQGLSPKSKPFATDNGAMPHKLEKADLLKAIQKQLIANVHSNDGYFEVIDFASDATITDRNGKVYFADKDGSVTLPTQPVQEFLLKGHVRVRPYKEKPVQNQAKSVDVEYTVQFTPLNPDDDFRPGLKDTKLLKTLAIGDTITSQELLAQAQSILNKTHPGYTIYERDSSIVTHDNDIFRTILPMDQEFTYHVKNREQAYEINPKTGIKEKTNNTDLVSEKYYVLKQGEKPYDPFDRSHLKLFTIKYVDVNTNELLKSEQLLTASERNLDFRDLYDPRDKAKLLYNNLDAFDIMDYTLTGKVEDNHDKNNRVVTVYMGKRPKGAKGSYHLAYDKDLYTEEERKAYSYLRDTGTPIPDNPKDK

H9c2 = assay: cells; assay type: functional, cell-based; details: Rattus norvegicus, H9c2, Myocardium;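 further: confirmatory concentration-response retest of ultra-high-throughput screening hits for modulation of myocardial damage; cell death induced by hydrogen peroxide oxidative stress; compound pretreatment for 60 min then peroxide exposure for 2 h; potency is for protecting the cells against peroxide damage rather than for killing them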
[13] = Luminescence Cell-Based Dose Confirmation HTS to Identify Inhibitors of Platelet Dense Granule Release. [Related pubchem assays: 1663 (Primary HTS), 1678 (Summary of Project)]; assay type: functional
[14] = target: Luciferin 4-monooxygenase (Photinus pyralis, UniProt P08659); assay: inhibition of purified Photinus pyralis luciferase – biochemical, luminescence, dose response (AID 1891)
[15] = blockers of HIV-1 envelope-mediated cell-cell fusion – cherry-pick, dose response (AID 652057); assay type: functional, cell-based

Sequence of Genome polyprotein (P29990 2492-3391 limits assumed): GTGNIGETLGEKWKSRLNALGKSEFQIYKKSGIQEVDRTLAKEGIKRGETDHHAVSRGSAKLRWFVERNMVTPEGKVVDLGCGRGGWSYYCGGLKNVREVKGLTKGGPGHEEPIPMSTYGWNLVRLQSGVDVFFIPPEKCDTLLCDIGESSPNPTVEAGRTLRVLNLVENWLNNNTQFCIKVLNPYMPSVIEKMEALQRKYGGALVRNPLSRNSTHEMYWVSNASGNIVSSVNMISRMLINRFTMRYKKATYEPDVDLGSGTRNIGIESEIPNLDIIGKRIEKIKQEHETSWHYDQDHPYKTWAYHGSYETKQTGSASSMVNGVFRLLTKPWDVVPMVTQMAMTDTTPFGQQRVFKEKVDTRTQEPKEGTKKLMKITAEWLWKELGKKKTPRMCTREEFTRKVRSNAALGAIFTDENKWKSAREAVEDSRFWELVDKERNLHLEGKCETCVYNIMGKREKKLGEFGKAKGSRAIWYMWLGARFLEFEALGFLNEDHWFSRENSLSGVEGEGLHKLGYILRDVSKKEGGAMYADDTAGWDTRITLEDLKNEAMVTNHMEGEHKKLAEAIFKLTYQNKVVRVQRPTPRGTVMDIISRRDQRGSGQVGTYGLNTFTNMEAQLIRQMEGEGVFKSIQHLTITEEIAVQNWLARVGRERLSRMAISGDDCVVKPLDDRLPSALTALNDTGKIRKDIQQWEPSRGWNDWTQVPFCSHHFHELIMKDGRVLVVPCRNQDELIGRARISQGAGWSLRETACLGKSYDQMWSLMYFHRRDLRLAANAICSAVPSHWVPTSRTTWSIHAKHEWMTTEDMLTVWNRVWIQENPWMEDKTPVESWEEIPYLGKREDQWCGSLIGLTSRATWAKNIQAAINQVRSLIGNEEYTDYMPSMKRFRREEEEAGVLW
T3 sequence (P49327 whole entry): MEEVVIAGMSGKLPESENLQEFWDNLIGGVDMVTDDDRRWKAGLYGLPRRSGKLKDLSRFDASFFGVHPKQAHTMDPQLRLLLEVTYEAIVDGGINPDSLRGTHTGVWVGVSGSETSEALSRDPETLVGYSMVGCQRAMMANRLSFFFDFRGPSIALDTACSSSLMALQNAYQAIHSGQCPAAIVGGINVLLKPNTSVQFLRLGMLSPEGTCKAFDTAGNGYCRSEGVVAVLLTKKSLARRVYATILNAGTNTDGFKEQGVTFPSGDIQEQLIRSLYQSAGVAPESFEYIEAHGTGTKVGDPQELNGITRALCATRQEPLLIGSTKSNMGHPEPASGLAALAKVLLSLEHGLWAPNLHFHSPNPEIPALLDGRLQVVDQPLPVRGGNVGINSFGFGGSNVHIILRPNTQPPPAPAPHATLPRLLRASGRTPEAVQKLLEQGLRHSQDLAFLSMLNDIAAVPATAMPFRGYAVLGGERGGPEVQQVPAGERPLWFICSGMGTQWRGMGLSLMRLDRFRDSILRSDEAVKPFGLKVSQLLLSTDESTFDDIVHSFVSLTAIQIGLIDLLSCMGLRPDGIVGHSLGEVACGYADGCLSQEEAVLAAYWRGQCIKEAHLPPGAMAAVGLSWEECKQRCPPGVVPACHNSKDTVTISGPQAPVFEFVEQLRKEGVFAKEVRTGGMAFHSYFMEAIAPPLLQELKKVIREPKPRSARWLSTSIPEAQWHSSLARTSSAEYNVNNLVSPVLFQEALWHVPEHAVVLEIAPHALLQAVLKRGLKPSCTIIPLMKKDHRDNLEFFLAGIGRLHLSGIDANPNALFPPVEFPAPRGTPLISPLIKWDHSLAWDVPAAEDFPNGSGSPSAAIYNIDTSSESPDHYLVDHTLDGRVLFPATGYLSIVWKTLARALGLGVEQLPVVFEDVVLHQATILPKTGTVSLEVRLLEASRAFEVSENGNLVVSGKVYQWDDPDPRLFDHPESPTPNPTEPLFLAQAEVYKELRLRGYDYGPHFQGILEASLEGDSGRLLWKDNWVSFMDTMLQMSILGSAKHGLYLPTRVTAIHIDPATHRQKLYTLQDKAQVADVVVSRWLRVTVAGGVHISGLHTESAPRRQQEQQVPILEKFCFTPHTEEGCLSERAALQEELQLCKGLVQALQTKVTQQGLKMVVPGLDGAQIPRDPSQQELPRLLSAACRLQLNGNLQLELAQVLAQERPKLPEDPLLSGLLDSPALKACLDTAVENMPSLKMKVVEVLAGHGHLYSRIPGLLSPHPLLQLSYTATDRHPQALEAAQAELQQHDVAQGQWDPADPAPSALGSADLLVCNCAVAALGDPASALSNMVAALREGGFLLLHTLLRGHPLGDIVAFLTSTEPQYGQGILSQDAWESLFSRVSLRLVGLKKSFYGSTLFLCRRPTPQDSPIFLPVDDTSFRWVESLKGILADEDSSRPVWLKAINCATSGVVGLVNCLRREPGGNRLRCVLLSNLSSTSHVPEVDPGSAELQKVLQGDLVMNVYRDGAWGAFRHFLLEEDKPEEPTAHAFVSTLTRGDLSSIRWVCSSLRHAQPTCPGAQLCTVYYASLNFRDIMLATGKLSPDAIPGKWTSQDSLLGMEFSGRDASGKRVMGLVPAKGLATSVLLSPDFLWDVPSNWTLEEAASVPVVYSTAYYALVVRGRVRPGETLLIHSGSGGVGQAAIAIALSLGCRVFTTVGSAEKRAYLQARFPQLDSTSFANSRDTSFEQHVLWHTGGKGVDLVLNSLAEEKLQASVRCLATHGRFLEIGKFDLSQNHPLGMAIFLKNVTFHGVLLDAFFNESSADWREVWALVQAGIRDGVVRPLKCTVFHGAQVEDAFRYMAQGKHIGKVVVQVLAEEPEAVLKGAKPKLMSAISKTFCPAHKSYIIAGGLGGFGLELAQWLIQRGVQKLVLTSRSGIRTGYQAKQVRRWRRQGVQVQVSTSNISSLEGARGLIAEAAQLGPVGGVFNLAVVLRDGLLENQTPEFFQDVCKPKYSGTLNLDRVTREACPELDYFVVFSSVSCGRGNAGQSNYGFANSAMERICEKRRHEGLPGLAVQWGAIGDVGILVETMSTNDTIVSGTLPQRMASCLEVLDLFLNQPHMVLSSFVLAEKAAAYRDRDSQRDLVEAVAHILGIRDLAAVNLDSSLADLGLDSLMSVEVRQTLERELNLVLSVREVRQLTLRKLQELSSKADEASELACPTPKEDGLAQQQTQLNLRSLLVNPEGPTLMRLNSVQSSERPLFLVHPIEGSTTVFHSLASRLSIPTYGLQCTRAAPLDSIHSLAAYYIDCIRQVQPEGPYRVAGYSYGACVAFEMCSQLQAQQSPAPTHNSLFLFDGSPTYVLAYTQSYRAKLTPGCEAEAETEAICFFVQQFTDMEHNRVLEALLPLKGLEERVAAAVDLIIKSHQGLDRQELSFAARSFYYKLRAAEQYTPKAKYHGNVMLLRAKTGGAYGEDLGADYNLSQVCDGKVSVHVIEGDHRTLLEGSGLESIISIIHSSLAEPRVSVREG
Sequence of Luciferin 4-monooxygenase (P08659 whole entry, the tested form may be a part): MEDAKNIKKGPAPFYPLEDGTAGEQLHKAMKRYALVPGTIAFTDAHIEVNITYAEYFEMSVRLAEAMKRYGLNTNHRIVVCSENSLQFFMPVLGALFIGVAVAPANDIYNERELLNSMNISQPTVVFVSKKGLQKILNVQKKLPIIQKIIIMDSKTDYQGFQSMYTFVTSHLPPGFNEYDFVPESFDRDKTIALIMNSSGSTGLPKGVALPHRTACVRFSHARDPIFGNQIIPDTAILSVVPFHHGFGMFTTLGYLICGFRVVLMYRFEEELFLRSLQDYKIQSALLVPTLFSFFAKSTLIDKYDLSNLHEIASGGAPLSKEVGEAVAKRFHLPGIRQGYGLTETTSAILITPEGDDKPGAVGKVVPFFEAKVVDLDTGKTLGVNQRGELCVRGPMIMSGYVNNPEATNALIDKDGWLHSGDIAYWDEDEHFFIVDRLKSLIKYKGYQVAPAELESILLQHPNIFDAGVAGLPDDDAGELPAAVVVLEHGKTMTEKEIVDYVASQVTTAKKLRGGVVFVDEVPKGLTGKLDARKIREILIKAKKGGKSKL

Compound: COc1ccc(C(=O)/C=C/Sc2nc3ccccc3o2)cc1
- AC50 [1]: > 380 µM (inactive)
- EC50 [2]: 96.7 µM (active)
- EC50 (H4): 14.5 µM (active)
- EC50 (Protein RecA): 54.4 µM (active)
- CC50 [3]: 32.4 µM (active)
- EC50 [4]: 17.4 µM (active)

Compound: COc1ccc(/C=C2\C(=O)ON=C2c2ccccc2)cc1OC
- IC50 (Genome polyprotein): 95.4 µM (active)

Compound: CCCCn1c(-c2ccc(C(C)(C)C)cc2)nc2cc3nc(O)c(C(C)C)nc3cc21
- CC50 [3]: 32.7 µM (active)

Compound: NC1=NC2(CCC(c3ccccc3)CC2)n2c(nc3ccccc32)N1 (centres undefined)
- CC50 [3]: 29.3 µM (active)

Compound: COc1ccc2[nH]c3c(c2c1)CCN1C(=O)C(CC(=O)NCCc2ccccn2)C[C@H](C(=O)N2CCOCC2)[C@@]31CCC1CCCC1 (some centres undefined)
- IC50 (Fatty acid synthase [5]): 7.16 µM (active)
- IC50 (Fatty acid synthase [6]): 8.91 µM (active)

Compound: O=C(COc1ccc([N+](=O)[O-])cc1)NNC(=S)NC(=O)c1ccc(Br)cc1
- EC50 [7]: 3.09 µM (active)
- EC50 [8]: > 150 µM (inactive)

Compound: C=C(C)[C@@H]1C2=CC(C(=O)OC)=C(C[C@H](C(=C)C)[C@H]3O[C@H]3C3=C[C@H]1OC3=O)O2
- AC50 [9]: 13.3 µM (active)
- AC50 [10]: 8.16 µM (active)
- AC50 [11]: 5.23 µM (active)

Compound: O[C@@H]1CN(Cc2ccc(-n3cccn3)cc2)CC[C@H]1N1CCN(c2ccccc2F)CC1
- AC50 [9]: 68 µM (active)
- AC50 [10]: 2.13 µM (active)
- AC50 [11]: 2.39 µM (active)

Compound: CCCc1nc2[nH]c(C)c(NS(=O)(=O)c3ccc(C4CCCCC4)cc3)c(=O)n2n1
- IC50 (Genome polyprotein): 61.1 µM (active)

Compound: O=C(CSc1nc(Nc2ccccc2)nc(N2CCOCC2)n1)Nc1cc(Cl)ccc1O
- EC50 [12]: 6.55 µM (active)
- CC50 [3]: 17 µM (active)
- EC50 (Streptococcus): 18.5 µM (active)
- EC50 (Streptokinase A): 30.7 µM (active)

Compound: CCOC(=O)CNS(=O)(=O)c1cc(-c2nnc(O)c3ccccc23)ccc1C
- IC50 (H9c2): > 79 µM (inactive)
- EC50 [13]: 7.49 µM (active)
- EC50 [14]: > 112 µM (not active)

Compound: Cc1ccc(C(C2C(=O)CC(C)(C)CC2=O)C2C(=O)CC(C)(C)CC2=O)s1
- IC50 (Genome polyprotein): 46.4 µM (active)

Compound: COc1ccc([Si](C)(C)[C@H]2[C@H](CCO)O[C@@]3(C(=O)N(Cc4cccc(N5CCOC5=O)c4)c4ccccc43)[C@@H]2C)cc1
- AC50 [15]: 17.3 µM (active)
